The record followed here is patent publication US12371432B2, “Haloallylamine compounds and application thereof” (TransThera Sciences (Nanjing), Inc., priority 2019, dated 2025).

pIC50: −log10 of the molar value. Structures can show the parent of a compound that is named as a salt. Where two headings read alike, the source gives them in different places.

As usually defined, the clearance is a measure of how efficiently the substance is removed, as volume per time. For orientation: pIC50 means −log10 of the IC50, conventionally taken in molar units. Low values mean a large IC50, high ones a small IC50.

The nature of data set [1]: Rat PK evaluation. Format: in vivo. Particulars: plasma, SD rats; for bioavailability: n=3, read-out: F % (absolute bioavailability); for clearance: n=3, read-out: Cl_obs iv (clearance rate) (converted); for Vd: n=3, read-out: Vz_obs iv (apparent volume of distribution); for Tmax: n=3, median, read-out: Tmax po (time of maximum observed plasma concentration). As for the experimental part:
Animal Administration and Sample Collection:
The study compounds A1, A6, A32, A41 and A42 were each dissolved in normal saline to prepare solutions. The solutions of the compounds were separately administered to SD rats by intragastric administration at a dose of 5.0 mg/kg. Time points for blood collection were 15 min, 30 min, 1 h, 2 h, 4 h, 6 h, 8 h and 24 h.
The study compounds A1, A6, A32, A41 and A42 were each dissolved in normal saline to prepare solutions. The solutions of the compounds were separately administered to SD rats by intravenous push at a dose of 1.0 mg/kg. Time points for blood collection were 5 min, 15 min, 30 min, 1 h, 2 h, 4 h, 6 h, 8 h and 24 h.
Venous catheterization was performed the day before the administration. Subsequent to the administration, about 300 μL of blood was collected from the jugular vein and put into anticoagulation tubes containing EDTA-K2. Preparation was performed within 30 min after the blood collection. Plasma samples were obtained by centrifugation at 8,000 rpm for 6 min at 4° C., and were stored in a −80° C. refrigerator before plasma testing.
(1) the samples to be tested were taken out of the −80° C. refrigerator, naturally thawed at room temperature and then swirled for 5 min;
(2) 20 μL of plasma sample was accurately pipetted into a 1.5 mL centrifuge tube;
(3) 200 μL of internal standard working solution (solution of tolbutamide in methanol) with a concentration of 100 ng/mL was added, and uniform mixing was performed;
(4) after 5 min of swirling, centrifugation was performed at 12,000 rpm for 5 min;
(5) 50 μL of supernate was accurately pipetted into a 96-well plate added with 150 μL water/well in advance;
(6) uniform mixing was performed by swirling for 5 min, followed by LC-MS/MS assay.
Analyst 1.6.3 from AB Sciex was used to output concentration results of tested compounds. Microsoft Excel was used to calculate parameters such as mean value, standard deviation and variation coefficient (excluding those outputted directly by Analyst 1.6.3). Pharsight Phoenix 6.1 software NCA was adopted to calculate PK parameters (Tmax was median).

Data set [2] concerns the target T1, rhVAP-1 (Homo sapiens, UniProt Q16853).
T1 construct: purchased PeproTech
T1 sequence (Q16853 27-763 limits assumed): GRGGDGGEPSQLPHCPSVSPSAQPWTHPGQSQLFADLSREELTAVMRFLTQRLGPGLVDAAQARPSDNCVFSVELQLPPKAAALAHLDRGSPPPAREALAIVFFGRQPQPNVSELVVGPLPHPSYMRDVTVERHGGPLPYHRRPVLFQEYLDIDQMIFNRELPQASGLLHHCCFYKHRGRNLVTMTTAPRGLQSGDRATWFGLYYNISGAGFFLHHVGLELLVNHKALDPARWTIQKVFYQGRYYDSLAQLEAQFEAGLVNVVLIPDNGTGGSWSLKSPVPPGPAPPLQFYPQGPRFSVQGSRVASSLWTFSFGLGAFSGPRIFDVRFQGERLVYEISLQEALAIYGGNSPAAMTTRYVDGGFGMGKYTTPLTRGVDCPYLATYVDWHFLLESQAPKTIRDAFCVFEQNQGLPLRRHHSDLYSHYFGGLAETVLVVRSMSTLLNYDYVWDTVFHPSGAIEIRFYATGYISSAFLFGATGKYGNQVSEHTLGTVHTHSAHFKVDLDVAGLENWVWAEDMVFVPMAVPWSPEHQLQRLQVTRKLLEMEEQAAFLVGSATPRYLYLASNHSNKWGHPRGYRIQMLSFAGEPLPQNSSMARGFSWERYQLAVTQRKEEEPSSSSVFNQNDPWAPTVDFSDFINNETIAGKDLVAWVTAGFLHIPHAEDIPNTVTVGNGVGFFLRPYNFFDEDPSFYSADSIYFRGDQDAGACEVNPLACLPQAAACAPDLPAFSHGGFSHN
The data set is described as follows: Inhibitory activity against rhVAP-1 enzyme (Biological Example 2). Format: biochemical. The conditions noted are these: Table 2; benzylamine substrate, Amplex Red/HRP. The method in brief:
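Enzyme was preincubated 30 min at 37 °C in PBS with a 10-point 3-fold compound dilution series. Benzylamine with Amplex Red/HRP was then added, and fluorescence (ex 580/em 620 nm) was read every 5 min for 30 min. Inhibition was taken from rates versus max wells, and IC50 from a variable-slope fit.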

Where [3] appears, read: IV 1 mg/kg, n=3, read-out: AUCinf iv (area under plasma concentration-time curve 0-∞).
The mark [4] stands for this setting: IV 1 mg/kg, n=3, read-out: tz1/2 iv (terminal half-life) (converted).
The mark [5] stands for this setting: PO 5 mg/kg, n=3, read-out: AUCinf po (area under plasma concentration-time curve 0-∞).
Setting [6] is: PO 5 mg/kg, n=3, read-out: tz1/2 po (terminal half-life) (converted).

For the compound `NC/C(=C\F)Cn1cc2c(n1)CCN(C1CC1)C2=O` [Compound A1, (E)-2-(2-(aminomethyl)-3-fluoroallyl)-5-cyclopropyl-2,5,6,7-tetrahydro-4H-pyrazolo[4,3-c]pyridin-4-one], the bioavailability in data set [1] (IV 1 mg/kg, PO 5 mg/kg) is 87%. In addition, the AUC(0-inf) in data set [1] (setting [3]) came to 545 ng·h/mL; in data set [1] (setting [5]) it was 2370 ng·h/mL. Besides, in data set [1] (IV 1 mg/kg), the clearance was 30.8 mL/min/kg. The Vd in data set [1] (IV 1 mg/kg) worked out at 2.31 L/kg. In addition, the values for the half-life in data set [1] (setting [4]) and in data set [1] (setting [6]) were 52.2 min and 70.2 min, respectively. In addition, the Tmax in data set [1] (PO 5 mg/kg) is 120 min.

Consider `CCN1CCc2nn(C/C(=C/F)CN)cc2C1=O` [Compound A6 hydrochloride, (E)-2-(2-(aminomethyl)-3-fluoroallyl)-5-ethyl-2,5,6,7-tetrahydro-4H-pyrazolo[4,3-c]pyridin-4-one], for which the pIC50 in data set [2] is 7.64. For the same compound, in data set [1] (IV 1 mg/kg, PO 5 mg/kg), the bioavailability came out at 76.3%. For the same compound, the AUC(0-inf) in data set [1] (setting [3]) came out at 445 ng·h/mL; in data set [1] (setting [5]), 1700 ng·h/mL. Also, the clearance in data set [1] (IV 1 mg/kg) was 37.8 mL/min/kg. The Vd in data set [1] (IV 1 mg/kg) is 2.38 L/kg. For the same compound, the values for the half-life in data set [1] (setting [4]) and in data set [1] (setting [6]) were 43.8 min and 65.4 min, respectively. For the same compound, in data set [1] (PO 5 mg/kg), the Tmax stood at 30 min.

The compound `NC/C(=C\F)Cn1cc2c(c1)C(=O)N(C1CC1)CC2` [Compound A22, (E)-2-(2-(aminomethyl)-3-fluoroallyl)-5-cyclopropyl-2,5,6,7-tetrahydro-4H-pyrrolo[3,4-c]pyridin-4-one] gave a pIC50 in data set [2] of 7.36.

For `CCn1ccc2nn(C/C(=C/F)CN)cc2c1=O` [Compound A28 hydrochloride, (E)-2-(2-(aminomethyl)-3-fluoroallyl)-5-ethyl-2,5-dihydro-4H-pyrazolo[4,3-c]pyridin-4-one], the pIC50 in data set [2] was 7.48.

As to `CNC(=O)c1cnn(C/C(=C/F)CN)c1` [Compound B1, (E)-1-(2-(aminomethyl)-3-fluoroallyl)-N-methyl-1H-pyrazole-4-carboxamide], the pIC50 in data set [2] was 7.40.

In turn, `Cc1c2c(cn1C/C(=C/F)CN)C(=O)N(C1CC1)CC2` [Compound A35 hydrochloride, (E)-2-(2-(aminomethyl)-3-fluoroallyl)-5-cyclopropyl-1-methyl-2,5,6,7-tetrahydro-4H-pyrrolo[3,4-c]pyridin-4-one] gave a pIC50 in data set [2] of 7.62.

Take `CCN1CCc2cn(C/C(=C/F)CN)cc2C1=O` [Compound A25, (E)-2-(2-(aminomethyl)-3-fluoroallyl)-5-ethyl-2,5,6,7-tetrahydro-4H-pyrrolo[3,4-c]pyridin-4-one]: in data set [2], the pIC50 is 7.35.

With `Cl.NC/C(=C\F)Cn1cc2c(c1Cl)CCN(C1CC1)C2=O` [Compound A42 hydrochloride, (E)-2-(2-(aminomethyl)-3-fluoroallyl)-1-chloro-5-cyclopropyl-2,5,6,7-tetrahydro-4H-pyrrolo[3,4-c]pyridin-4-one], the pIC50 in data set [2] is 7.77. In data set [1] (IV 1 mg/kg, PO 5 mg/kg), the bioavailability amounted to 151%. Moreover, the AUC(0-inf) in data set [1] (setting [3]) was found to be 591 ng·h/mL; in data set [1] (setting [5]), 4480 ng·h/mL. Moreover, the clearance in data set [1] (IV 1 mg/kg) is 29.5 mL/min/kg. Besides, in data set [1] (IV 1 mg/kg), the Vd is 1.29 L/kg. For the same compound, the half-life in data set [1] (setting [4]) was 31.8 min; in data set [1] (setting [6]), 79.8 min. Besides, the Tmax in data set [1] (PO 5 mg/kg) was 60 min.

In data set [2], `CCn1ccc2c(cnn2C/C(=C/F)CN)c1=O` [Compound A29 hydrochloride, (E)-1-(2-(aminomethyl)-3-fluoroallyl)-5-ethyl-1,5-dihydro-4H-pyrazolo[4,3-c]pyridin-4-one] gave a pIC50 of 7.22.

`NC/C(=C\F)Cn1c(Br)c2c(c1Br)C(=O)N(C1CC1)CC2` [Compound A33 hydrochloride, (E)-2-(2-(aminomethyl)-3-fluoroallyl)-1,3-dibromo-5-cyclopropyl-2,5,6,7-tetrahydro-4H-pyrrolo[3,4-c]pyridin-4-one]: the negative-log IC50 (pIC50) in data set [2] was 7.64.

Take `CC(C)(C)N1CCc2nn(C/C(=C/F)CN)cc2C1=O` [Compound A7 hydrochloride, (E)-2-(2-(aminomethyl)-3-fluoroallyl)-5-tert-butyl-2,5,6,7-tetrahydro-4H-pyrazolo[4,3-c]pyridin-4-one]: in data set [2], the negative logarithm of the IC50 (pIC50) was 7.34.

`NC/C(=C\F)Cn1cc2c(=O)n(C3CC3)ccc2n1` [Compound A41, (E)-2-(2-(aminomethyl)-3-fluoroallyl)-5-cyclopropyl-2,5-dihydro-4H-pyrazolo[4,3-c]pyridin-4-one]: the negative logarithm of the IC50 (pIC50) in data set [2] is 8.10. Moreover, the bioavailability in data set [1] (IV 1 mg/kg, PO 5 mg/kg) worked out at 61.9%. In addition, the figures for the AUC(0-inf) in data set [1] (setting [3]) and in data set [1] (setting [5]) were 531 ng·h/mL and 1640 ng·h/mL, respectively. Further, the clearance in data set [1] (IV 1 mg/kg) is 31.5 mL/min/kg. The Vd in data set [1] (IV 1 mg/kg) amounted to 1.53 L/kg. The half-life in data set [1] (setting [4]) was 33.6 min; in data set [1] (setting [6]) it was 107 min. The Tmax in data set [1] (PO 5 mg/kg) was 60 min.

The compound `Cl.NC/C(=C\F)Cn1cc2c(c1Br)CCN(C1CC1)C2=O` [Compound A32 hydrochloride, (E)-2-(2-(aminomethyl)-3-fluoroallyl)-1-bromo-5-cyclopropyl-2,5,6,7-tetrahydro-4H-pyrrolo[3,4-c]pyridin-4-one] gave a pIC50 in data set [2] of 7.82. The bioavailability in data set [1] (IV 1 mg/kg, PO 5 mg/kg) stood at 173%. Further, the AUC(0-inf) in data set [1] (setting [3]) came to 572 ng·h/mL; in data set [1] (setting [5]), 4950 ng·h/mL. The clearance in data set [1] (IV 1 mg/kg) was 29.2 mL/min/kg. Further, in data set [1] (IV 1 mg/kg), the Vd is 1.2 L/kg. For the same compound, the values for the half-life in data set [1] (setting [4]) and in data set [1] (setting [6]) were 28.8 min and 45 min, respectively. Moreover, the Tmax in data set [1] (PO 5 mg/kg) came to 15 min.
